Results taken from patent publication US20250171495A1, “MUTLI-TARGETED SERINE PROTEASE INHIBITORS FOR TREATMENT OF CANCER AND VIRAL INFECTION” (Washington University, priority 2023, published 2025).
Where two headings read alike, the source gives them in different places. Numbered stars: 1 amine (or outer) side, 2 acyl side, 3 side chain; on linkers, the order of the positions; unused ones are H or OH. Square brackets hold non-standard residues; d marks the D form. Peptide text beside a SMILES is read from it. X1 = N=C(N)NCCC[C@H](N[*:1])C(=O)c1nc2ccc(C(=O)[*:2])cc2s1

Key:
Type in all cases: biochemical
Factor Xa = molecular target: T1, Factor Xa (Homo sapiens, UniProt P00742); experiment: Fluorogenic assay, Factor Xa; conditions: read-out: Factor Xa IC50
T1 construct: TMPRSS2; Matriptase; Hepsin; HGFA; Thrombin; Factor Xa

Thrombin = Thrombin (Homo sapiens, UniProt P00734); experiment: Fluorogenic assay, thrombin
matriptase = molecular target: T2, matriptase (Homo sapiens, UniProt Q9Y5Y6); experiment: Fluorogenic kinetic enzyme inhibitor assay, matriptase
T2 construct: purchased R&D Systems 3946-SEB-010
T2 sequence (Q9Y5Y6 615-855 limits assumed): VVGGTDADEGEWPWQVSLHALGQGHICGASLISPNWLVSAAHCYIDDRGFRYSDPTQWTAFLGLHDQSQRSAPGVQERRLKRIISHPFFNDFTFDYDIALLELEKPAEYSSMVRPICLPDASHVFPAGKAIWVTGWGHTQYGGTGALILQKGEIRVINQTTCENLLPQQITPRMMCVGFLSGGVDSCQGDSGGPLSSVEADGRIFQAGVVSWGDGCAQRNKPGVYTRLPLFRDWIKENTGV

HGFA = molecular target: T3, HGFA (Homo sapiens, UniProt Q04756); experiment: Fluorogenic kinetic enzyme inhibitor assay, HGFA; conditions: read-out: HGFA IC50
T3 construct: purchased R&D Systems 1514-SE-010
T3 sequence (Q04756 408-655 limits assumed): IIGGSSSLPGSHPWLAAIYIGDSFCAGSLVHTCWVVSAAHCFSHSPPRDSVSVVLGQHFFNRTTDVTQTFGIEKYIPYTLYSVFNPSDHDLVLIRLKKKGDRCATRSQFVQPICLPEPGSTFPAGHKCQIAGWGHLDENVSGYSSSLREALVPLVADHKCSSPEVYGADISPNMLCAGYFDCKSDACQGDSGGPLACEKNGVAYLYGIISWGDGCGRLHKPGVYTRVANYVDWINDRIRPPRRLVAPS
T3 sequence (Q04756 373-407 partner limits assumed): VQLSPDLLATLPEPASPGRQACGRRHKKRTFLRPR

hepsin = molecular target: T4, hepsin (Homo sapiens, UniProt P05981); experiment: Fluorogenic kinetic enzyme inhibitor assay, hepsin; conditions: read-out: Hepsin IC50
T4 construct: purchased R&D Systems 4776-SE-010

TMPRSS2 = TMPRSS2 (Homo sapiens, UniProt O15393); experiment: Fluorogenic kinetic enzyme inhibitor assay, TMPRSS2; set-up: purchased Cusabio Technology CSB-YP023924HU; conditions: read-out: TMPRSS2 IC50
Sequence of TMPRSS2 (O15393 106-492 limits assumed): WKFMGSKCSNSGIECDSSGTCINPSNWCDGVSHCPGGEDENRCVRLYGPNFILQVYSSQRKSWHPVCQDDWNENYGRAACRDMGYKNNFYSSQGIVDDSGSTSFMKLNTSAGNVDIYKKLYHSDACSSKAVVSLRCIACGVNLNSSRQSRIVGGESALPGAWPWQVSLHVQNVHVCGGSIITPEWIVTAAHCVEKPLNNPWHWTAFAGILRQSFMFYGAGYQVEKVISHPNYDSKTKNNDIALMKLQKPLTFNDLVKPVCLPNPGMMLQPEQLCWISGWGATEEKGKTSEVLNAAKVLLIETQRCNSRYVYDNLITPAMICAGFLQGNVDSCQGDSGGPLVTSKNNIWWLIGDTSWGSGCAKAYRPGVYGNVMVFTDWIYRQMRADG

T1 sequence (P00742 235-488 limits assumed): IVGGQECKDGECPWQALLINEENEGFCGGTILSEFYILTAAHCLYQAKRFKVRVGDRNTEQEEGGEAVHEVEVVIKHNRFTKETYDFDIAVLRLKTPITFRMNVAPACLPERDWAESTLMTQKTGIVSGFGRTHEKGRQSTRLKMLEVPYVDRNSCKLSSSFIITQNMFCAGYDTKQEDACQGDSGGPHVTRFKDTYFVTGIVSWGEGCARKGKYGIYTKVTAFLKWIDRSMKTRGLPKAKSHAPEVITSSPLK
T1 sequence (P00742 41-179 partner limits assumed): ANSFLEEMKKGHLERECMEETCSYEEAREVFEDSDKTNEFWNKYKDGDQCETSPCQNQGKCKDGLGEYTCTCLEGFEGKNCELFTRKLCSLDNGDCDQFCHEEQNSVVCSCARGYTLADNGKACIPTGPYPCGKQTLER
T4 sequence (P05981 163-417 limits assumed): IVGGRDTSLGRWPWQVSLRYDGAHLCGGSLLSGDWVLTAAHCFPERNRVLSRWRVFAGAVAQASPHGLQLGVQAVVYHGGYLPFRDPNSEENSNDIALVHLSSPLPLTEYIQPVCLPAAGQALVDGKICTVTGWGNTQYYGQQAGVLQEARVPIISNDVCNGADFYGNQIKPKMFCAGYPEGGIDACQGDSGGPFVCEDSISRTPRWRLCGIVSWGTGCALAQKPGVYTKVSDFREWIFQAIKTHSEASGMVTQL
T4 sequence (P05981 1-162 partner limits assumed): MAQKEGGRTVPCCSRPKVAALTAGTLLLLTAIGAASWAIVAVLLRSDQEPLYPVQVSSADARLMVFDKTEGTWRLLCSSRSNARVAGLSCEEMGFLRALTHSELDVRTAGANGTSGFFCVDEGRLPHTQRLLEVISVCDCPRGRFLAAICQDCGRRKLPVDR

SMILES | IC50 (Factor Xa) | IC50 (Thrombin) | IC50 (matriptase) | IC50 (HGFA) | IC50 (hepsin) | IC50 (matriptase; read-out: Matriptase IC50) | IC50 (TMPRSS2)
CC(=O)N[C@@H](CO)C(=O)N[C@H](Cc1c[nH]c2ccccc12)C(=O)N[C@@H](CC(C)C)C(=O)N[C@@H](CCCNC(=N)N)C(=O)c1nc2ccc(C(=O)N[C@H](C(N)=O)C(C)C)cc2s1 [JH1114, N-[(S)-1-carbamoyl-2-methylpropyl]-2-[(S)-2-[(S)-2-[(R)-2-[(S)-2-acetylamino-3-hydroxypropionylamino]-3-(3-indolyl)propionylamino]-4-methylvalerylamino]-5-guanidinovaleryl]-1,3-benzothiazole-6-carboxamide] (Ac-S[dW]L[X1]V-NH2) | 1280 nM | 3880 nM | 231 nM | 57.4 nM | 1.8 nM |  | 
CC(=O)N[C@H](Cc1c[nH]c2ccccc12)C(=O)N[C@@H](CCCCNC(=N)N)C(=O)N[C@@H](CCC(C)C)C(=O)N[C@@H](CCCNC(=N)N)C(=O)c1nc2ccccc2s1 [JH1140-2, N-[(S)-1-[(1,3-benzothiazol-2-yl)carbonyl]-4-guanidinobutyl](S)-2-[(S)-1-[(R)-2-acetylamino-3-(3-indolyl)propionylamino]-5-guanidinopentylcarbonylamino]-5-methylhexanamide] | 9.12 nM | > 20000 nM | 0.46 nM | 4.84 nM | 0.45 nM |  | 
CC(=O)N[C@@H](CCCCNC(=N)N)C(=O)N[C@@H](CCC(C)C)C(=O)N[C@@H](CCCNC(=N)N)C(=O)c1nc2ccccc2s1 [JH1141-2, N-[(S)-1-[(1,3-benzothiazol-2-yl)carbonyl]-4-guanidinobutyl](S)-2-[(S)-1-acetylamino-5-guanidinopentylcarbonylamino]-5-methylhexanamide] | 121 nM | > 20000 nM |  | 10.5 nM | 1.15 nM | 1.06 nM | 
CC(=O)N[C@@H](Cc1cncn1COCc1ccccc1)C(=O)N[C@@H](CCCCNC(=N)N)C(=O)N[C@@H](CCC(C)C)C(=O)N[C@@H](CCCNC(=N)N)C(=O)c1nc2ccccc2s1 [JH1143-2, N-[(S)-1-[(1,3-benzothiazol-2-yl)carbonyl]-4-guanidinobutyl](S)-2-[(S)-1-[(S)-2-acetylamino-3-{1-[(benzyloxy)methyl]-5-imidazolyl}propionylamino]-5-guanidinopentylcarbonylamino]-5-methylhexanamide] | 177 nM | 1630 nM | 0.862 nM | 43.9 nM | 0.728 nM |  | 
CC(=O)N[C@@H](CO)C(=O)NCc1cccc(CC(=O)N[C@@H](CC(C)C)C(=O)N[C@@H](CCCNC(=N)N)C(=O)c2nc3ccccc3s2)c1 [MM1132-2, N-[(S)-1-[(1,3-benzothiazol-2-yl)carbonyl]-4-guanidinobutyl](S)-2-{[(m-{[(S)-2-acetylamino-3-hydroxypropionylamino]methyl}phenyl)methyl]carbonylamino}-4-methylvaleramide] | 1890 nM | 9440 nM |  | 209 nM | 0.326 nM | 31 nM | 
CCC(C)[C@H](NC(C)=O)C(=O)N[C@@H](CCC(N)=O)C(=O)N[C@@H](CO)C(=O)N[C@@H](CCCNC(=N)N)C(=O)c1nc2ccccc2s1 (stereo partly drawn) [MM3177, N-[(S)-2-hydroxy-1-[N-(S)-1-[(1,3-benzothiazol-2-yl)carbonyl]-4-guanidinobutylcarbamoyl]ethyl](S)-2-[(2S)-2-acetylamino-3-methylvalerylamino]glutaramide] | 1730 nM | > 20000 nM |  | 19900 nM | 2.42 nM |  | 4.55 nM
CCC(C)[C@H](NC(C)=O)C(=O)N[C@@H](CCC(N)=O)C(=O)N[C@H](C(=O)N[C@@H](CCCNC(=N)N)C(=O)c1nc2ccccc2s1)C(C)O (stereo partly drawn) [MM3186, N-[(1S)-2-hydroxy-1-[N-(S)-1-[(1,3-benzothiazol-2-yl)carbonyl]-4-guanidinobutylcarbamoyl]propyl](S)-2-[(2S)-2-acetylamino-3-methylvalerylamino]glutaramide] | > 20000 nM | > 20000 nM | 15.5 nM | 18400 nM |  |  | 0.173 nM
